This note sets out measurements from patent US20190330275A1 (priority 2016, published 2019).

Several values for one entry are separate records, joined by “and”; a condition that tells them apart may be missing. Equal entries are not always repeated. Entries after “also recorded” stand apart in the source; their conditions may differ. Peptide text beside a SMILES is read from it.

Assay [1] deals with rat α3β4 nAChR (Rattus norvegicus, UniProt P04757+P12392). The assay is described as follows: cell-based.
rat α3β4 nAChR, sequence (P04757 26-499 limits assumed): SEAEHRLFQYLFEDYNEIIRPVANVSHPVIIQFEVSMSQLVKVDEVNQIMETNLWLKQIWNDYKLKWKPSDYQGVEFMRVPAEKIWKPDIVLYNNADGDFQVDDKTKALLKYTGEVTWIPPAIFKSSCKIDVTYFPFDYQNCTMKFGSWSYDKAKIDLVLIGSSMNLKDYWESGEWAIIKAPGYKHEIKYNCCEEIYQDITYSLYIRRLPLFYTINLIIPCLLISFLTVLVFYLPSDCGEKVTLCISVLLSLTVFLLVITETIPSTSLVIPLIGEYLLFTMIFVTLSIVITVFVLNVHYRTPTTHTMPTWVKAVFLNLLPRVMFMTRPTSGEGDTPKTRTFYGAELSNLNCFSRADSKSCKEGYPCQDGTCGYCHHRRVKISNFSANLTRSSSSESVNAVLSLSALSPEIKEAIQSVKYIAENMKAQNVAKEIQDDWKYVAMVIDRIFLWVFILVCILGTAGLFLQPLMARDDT
rat α3β4 nAChR, sequence (P12392 21-495 limits assumed): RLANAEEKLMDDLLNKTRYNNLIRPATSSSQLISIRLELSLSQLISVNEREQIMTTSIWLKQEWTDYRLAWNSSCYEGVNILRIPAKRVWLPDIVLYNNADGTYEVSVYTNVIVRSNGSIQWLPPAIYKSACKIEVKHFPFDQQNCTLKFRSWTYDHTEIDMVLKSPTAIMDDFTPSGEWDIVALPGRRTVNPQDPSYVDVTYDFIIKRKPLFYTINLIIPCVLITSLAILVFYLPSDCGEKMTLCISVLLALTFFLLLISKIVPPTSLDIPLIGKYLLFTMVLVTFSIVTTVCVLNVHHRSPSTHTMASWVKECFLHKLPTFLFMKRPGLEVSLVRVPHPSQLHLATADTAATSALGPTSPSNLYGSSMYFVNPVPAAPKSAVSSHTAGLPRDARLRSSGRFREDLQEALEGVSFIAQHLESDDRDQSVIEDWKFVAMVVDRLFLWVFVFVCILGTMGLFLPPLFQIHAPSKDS
For assay [2], the target named is rat α6/α3β4 nAChR (Rattus norvegicus, UniProt P04757+P12392+P43143). As to the kind of experiment: cell-based.
rat α6/α3β4 nAChR, sequence (P04757 whole entry, looked up): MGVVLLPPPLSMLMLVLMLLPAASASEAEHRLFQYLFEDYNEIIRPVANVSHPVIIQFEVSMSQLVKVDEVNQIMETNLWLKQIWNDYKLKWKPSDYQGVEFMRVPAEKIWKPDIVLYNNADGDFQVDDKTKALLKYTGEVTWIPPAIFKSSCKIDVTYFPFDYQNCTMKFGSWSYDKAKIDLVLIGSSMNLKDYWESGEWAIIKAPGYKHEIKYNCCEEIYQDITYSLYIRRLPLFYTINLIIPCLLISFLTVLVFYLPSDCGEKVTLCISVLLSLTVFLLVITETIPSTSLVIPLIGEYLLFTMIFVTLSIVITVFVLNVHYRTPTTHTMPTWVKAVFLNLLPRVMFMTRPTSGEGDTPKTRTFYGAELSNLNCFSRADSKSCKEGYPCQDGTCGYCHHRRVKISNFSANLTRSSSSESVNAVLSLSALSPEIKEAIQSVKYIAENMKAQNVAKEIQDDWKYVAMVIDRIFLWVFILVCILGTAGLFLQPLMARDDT
rat α6/α3β4 nAChR, sequence (P12392 whole entry, looked up): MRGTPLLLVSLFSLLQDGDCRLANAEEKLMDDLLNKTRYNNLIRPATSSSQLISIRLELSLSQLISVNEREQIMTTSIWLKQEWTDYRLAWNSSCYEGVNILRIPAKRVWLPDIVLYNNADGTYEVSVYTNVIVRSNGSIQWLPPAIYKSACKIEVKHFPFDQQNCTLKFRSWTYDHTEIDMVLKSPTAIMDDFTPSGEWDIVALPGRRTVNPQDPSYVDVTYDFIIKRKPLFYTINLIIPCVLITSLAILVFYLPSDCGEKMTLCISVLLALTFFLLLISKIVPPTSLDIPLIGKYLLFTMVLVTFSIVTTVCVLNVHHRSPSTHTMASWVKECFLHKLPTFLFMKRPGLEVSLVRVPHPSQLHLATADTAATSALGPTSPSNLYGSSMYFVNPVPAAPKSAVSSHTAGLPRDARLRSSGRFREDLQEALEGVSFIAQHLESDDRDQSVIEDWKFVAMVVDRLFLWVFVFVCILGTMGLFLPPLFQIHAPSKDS
rat α6/α3β4 nAChR, sequence (P43143 whole entry, looked up): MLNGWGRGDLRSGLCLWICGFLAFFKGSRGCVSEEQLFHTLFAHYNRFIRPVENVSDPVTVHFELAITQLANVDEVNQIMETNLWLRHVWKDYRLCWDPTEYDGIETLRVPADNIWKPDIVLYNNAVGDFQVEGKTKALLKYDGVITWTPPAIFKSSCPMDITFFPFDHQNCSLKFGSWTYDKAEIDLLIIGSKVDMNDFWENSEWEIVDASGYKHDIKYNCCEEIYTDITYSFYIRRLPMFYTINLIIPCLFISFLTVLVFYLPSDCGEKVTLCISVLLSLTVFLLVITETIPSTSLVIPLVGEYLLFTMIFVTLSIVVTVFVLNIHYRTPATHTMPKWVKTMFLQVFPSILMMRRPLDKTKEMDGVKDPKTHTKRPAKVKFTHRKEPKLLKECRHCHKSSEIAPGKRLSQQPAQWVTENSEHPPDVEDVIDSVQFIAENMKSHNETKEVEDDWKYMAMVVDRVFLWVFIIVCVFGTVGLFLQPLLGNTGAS
[3] abbreviates: α6/α3β4 IC50 (half-blocking dose).

Consider `CC[C@H](C)[C@@H]1NC(=O)[C@@H]2CCCN2C(=O)[C@H](CO)NC(=O)[C@H](CCSC)NC(=O)[C@H](C)NC(=O)[C@H](CCC(=O)O)NC(=O)[C@@H]2CSSC[C@H](NC(=O)CN)C(=O)N[C@@H](CSSC[C@@H](C(N)=O)NC1=O)C(=O)N[C@@H](CO)C(=O)N[C@@H](Cc1c[nH]cn1)C(=O)N1CCC[C@H]1C(=O)N[C@@H](C(C)C)C(=O)N2` [TxID[S9E]] (HELM PEPTIDE1{G.C.C.S.H.P.V.C.E.A.M.S.P.I.C.[am]}$PEPTIDE1,PEPTIDE1,2:R3-8:R3|PEPTIDE1,PEPTIDE1,3:R3-15:R3$$$V2.0), for which, in assay [1], the “binding (blocking) activity to α3β4 nAChR compared with wild type TxID” value is “weak”. In assay [2], the “binding (blocking) activity to α6/α3β4 nAChR compared with wild type TxID” value is given as “completely lost; also recorded: completely loses the binding activity” and the “blocking effect on the current of rat α6/α3β4 nAChRs” value is “no blocking activity; also recorded: no blocking effect”.
Take `CC[C@H](C)[C@@H]1NC(=O)[C@@H]2CCCN2C(=O)[C@H](CO)NC(=O)[C@H](CCSC)NC(=O)[C@H](C)NC(=O)[C@H](C)NC(=O)[C@@H]2CSSC[C@H](NC(=O)CN)C(=O)N[C@@H](CSSC[C@@H](C(N)=O)NC1=O)C(=O)N[C@@H](CO)C(=O)N[C@@H](Cc1c[nH]cn1)C(=O)N1CCC[C@H]1C(=O)N[C@@H](C(C)C)C(=O)N2` [TxID[S9A]] (HELM PEPTIDE1{G.C.C.S.H.P.V.C.A.A.M.S.P.I.C.[am]}$PEPTIDE1,PEPTIDE1,2:R3-8:R3|PEPTIDE1,PEPTIDE1,3:R3-15:R3$$$V2.0): in assay [1], the “binding (blocking) activity to α3β4 nAChR compared with wild type TxID” value is “no effect on the blocking activity”; the current blocked is 98% and 75%. In addition, in assay [2], the “blocking activity to α6β4* nAChRs subtype” value is given as “completely lost the blocking activity” and the current blocked is listed as 26%.
One may read the IC50 as the concentration that gives 50% inhibition. Low readings indicate higher potency, high ones lower potency. `CC[C@H](C)[C@@H]1NC(=O)[C@H](C)NC(=O)[C@H](CO)NC(=O)[C@H](CCSC)NC(=O)[C@H](C)NC(=O)[C@H](CO)NC(=O)[C@@H]2CSSC[C@H](NC(=O)CN)C(=O)N[C@@H](CSSC[C@@H](C(N)=O)NC1=O)C(=O)N[C@@H](CO)C(=O)N[C@@H](Cc1c[nH]cn1)C(=O)N1CCC[C@H]1C(=O)N[C@@H](C(C)C)C(=O)N2` [TxID[P13A]] (HELM PEPTIDE1{G.C.C.S.H.P.V.C.S.A.M.S.A.I.C.[am]}$PEPTIDE1,PEPTIDE1,2:R3-8:R3|PEPTIDE1,PEPTIDE1,3:R3-15:R3$$$V2.0): the IC50 in assay [1] (α3β4 IC50 (half-blocking dose)) and in assay [2] (setting [3]) was greater than 10000 nM each time.
On to `CC[C@H](C)[C@@H]1NC(=O)[C@@H]2CCCN2C(=O)[C@H](CO)NC(=O)[C@H](CCSC)NC(=O)[C@H](C)NC(=O)[C@H]([C@@H](C)O)NC(=O)[C@@H]2CSSC[C@H](NC(=O)CN)C(=O)N[C@@H](CSSC[C@@H](C(N)=O)NC1=O)C(=O)N[C@@H](CO)C(=O)N[C@@H](Cc1c[nH]cn1)C(=O)N1CCC[C@H]1C(=O)N[C@@H](C(C)C)C(=O)N2` [TxID[S9T]] (HELM PEPTIDE1{G.C.C.S.H.P.V.C.T.A.M.S.P.I.C.[am]}$PEPTIDE1,PEPTIDE1,2:R3-8:R3|PEPTIDE1,PEPTIDE1,3:R3-15:R3$$$V2.0), for which the “binding (blocking) activity to α3β4 nAChR compared with wild type TxID” value in assay [1] is recorded as “not significantly different from the activity of the wild type TxID”. Besides, in assay [2], the “binding (blocking) activity to α6/α3β4 nAChR compared with wild type TxID” value is given as “not significantly different from the activity of the wild type TxID”.
Take `CC[C@H](C)[C@@H]1NC(=O)[C@@H]2CCCN2C(=O)[C@H](CO)NC(=O)[C@H](CCSC)NC(=O)[C@H](C)NC(=O)[C@H](Cc2cnc[nH]2)NC(=O)[C@@H]2CSSC[C@H](NC(=O)CN)C(=O)N[C@@H](CSSC[C@@H](C(N)=O)NC1=O)C(=O)N[C@@H](CO)C(=O)N[C@@H](Cc1cnc[nH]1)C(=O)N1CCC[C@H]1C(=O)N[C@@H](C(C)C)C(=O)N2` [TxID[S9H]] (HELM PEPTIDE1{G.C.C.S.H.P.V.C.H.A.M.S.P.I.C.[am]}$PEPTIDE1,PEPTIDE1,2:R3-8:R3|PEPTIDE1,PEPTIDE1,3:R3-15:R3$$$V2.0): the IC50 in assay [1] (α3β4 IC50) amounted to 1.96 nM; in assay [1] (α3β4 IC50 (half-blocking dose)), 2.61 nM; in assay [2] (α6/α3β4 IC50), 18.7 nM; in assay [2] (setting [3]), 14.7 nM.
As for `CSCC[C@@H]1NC(=O)[C@H](C)NC(=O)[C@H](CO)NC(=O)[C@@H]2CSSC[C@H](NC(=O)CN)C(=O)N[C@@H](CSSC[C@@H](C(N)=O)NC(=O)[C@H](C)NC(=O)[C@@H]3CCCN3C(=O)[C@H](CO)NC1=O)C(=O)N[C@@H](CO)C(=O)N[C@@H](Cc1c[nH]cn1)C(=O)N1CCC[C@H]1C(=O)N[C@@H](C(C)C)C(=O)N2` [TxID[I14A]] (HELM PEPTIDE1{G.C.C.S.H.P.V.C.S.A.M.S.P.A.C.[am]}$PEPTIDE1,PEPTIDE1,2:R3-8:R3|PEPTIDE1,PEPTIDE1,3:R3-15:R3$$$V2.0), the “α3β4 IC50 ratio” value in assay [1] amounted to 4.4. In assay [1] (α3β4 IC50 (half-blocking dose)), this compound registered an IC50 of 16.1 nM. Also, in assay [2], the “IC50 ratio of α6/α3β4 vs. α3β4 (Discrimination)” value came out at 2.8 and the “α6/α3β4 IC50 ratio” value was 1.3. In addition, the IC50 in assay [2] (setting [3]) came to 45.8 nM.
`CSCC[C@@H]1NC(=O)[C@H](C)NC(=O)[C@H](CO)NC(=O)[C@@H]2CSSC[C@H](NC(=O)CN)C(=O)N[C@@H](CSSC[C@@H](C(N)=O)NC(=O)[C@H](CC(C)C)NC(=O)[C@@H]3CCCN3C(=O)[C@H](CO)NC1=O)C(=O)N[C@@H](CO)C(=O)N[C@@H](Cc1c[nH]cn1)C(=O)N1CCC[C@H]1C(=O)N[C@@H](C(C)C)C(=O)N2` [TxID[I14L]] (HELM PEPTIDE1{G.C.C.S.H.P.V.C.S.A.M.S.P.L.C.[am]}$PEPTIDE1,PEPTIDE1,2:R3-8:R3|PEPTIDE1,PEPTIDE1,3:R3-15:R3$$$V2.0): the “α3β4 IC50 ratio” value in assay [1] was 2.8. Besides, it took 9.98 nM to reach half-maximal inhibition in assay [1] (α3β4 IC50 (half-blocking dose)) (IC50). For the same compound, in assay [2], the “IC50 ratio of α6/α3β4 vs. α3β4 (Discrimination)” value was found to be 2.9 and the “α6/α3β4 IC50 ratio” value is 0.9. In addition, in assay [2] (setting [3]), inhibition was half-maximal at 29 nM (IC50).
Take `CC[C@H](C)[C@@H]1NC(=O)[C@@H]2CCCN2C(=O)[C@H](CO)NC(=O)[C@H](Cc2c[nH]cn2)NC(=O)[C@H](C)NC(=O)[C@H](CO)NC(=O)[C@@H]2CSSC[C@H](NC(=O)CN)C(=O)N[C@@H](CSSC[C@@H](C(N)=O)NC1=O)C(=O)N[C@@H](CO)C(=O)N[C@@H](Cc1c[nH]cn1)C(=O)N1CCC[C@H]1C(=O)N[C@@H](C(C)C)C(=O)N2` [TxID[M11H]] (HELM PEPTIDE1{G.C.C.S.H.P.V.C.S.A.H.S.P.I.C.[am]}$PEPTIDE1,PEPTIDE1,2:R3-8:R3|PEPTIDE1,PEPTIDE1,3:R3-15:R3$$$V2.0): the “blocking effect on the current of rat α3β4 nAChRs” value in assay [1] is on record as “no blocking effects”. Further, the figures for the IC50 in assay [1] (α3β4 IC50 (half-blocking dose)), in assay [2] (α6/α3β4 IC50) and in assay [2] (setting [3]) were greater than 10000 nM, 1000 to 10000 nM and 3490 nM, respectively. Also, in assay [2], the “α6/α3β4 IC50 ratio” value is reported as 103.
In the case of `CC[C@H](C)[C@@H]1NC(=O)[C@@H]2CCCN2C(=O)[C@H](CO)NC(=O)[C@H](CCSC)NC(=O)[C@H](C)NC(=O)[C@H](CO)NC(=O)[C@@H]2CSSC[C@H](NC(=O)CN)C(=O)N[C@@H](CSSC[C@@H](C(N)=O)NC1=O)C(=O)N[C@@H](CO)C(=O)N[C@@H](C)C(=O)N1CCC[C@H]1C(=O)N[C@@H](C(C)C)C(=O)N2` [TxID[H5A]] (HELM PEPTIDE1{G.C.C.S.A.P.V.C.S.A.M.S.P.I.C.[am]}$PEPTIDE1,PEPTIDE1,2:R3-8:R3|PEPTIDE1,PEPTIDE1,3:R3-15:R3$$$V2.0), the IC50 in assay [1] (α3β4 IC50 (half-blocking dose)) and in assay [2] (setting [3]) was greater than 10000 nM throughout.
Take `CC[C@H](C)[C@@H]1NC(=O)[C@@H]2CCCN2C(=O)[C@H](CO)NC(=O)[C@H](CCSC)NC(=O)[C@H](C)NC(=O)[C@H](CO)NC(=O)[C@@H]2CSSC[C@H](NC(=O)CN)C(=O)N[C@@H](CSSC[C@@H](C(N)=O)NC1=O)C(=O)N[C@@H](CO)C(=O)N[C@@H](Cc1c[nH]cn1)C(=O)N[C@@H](C)C(=O)N[C@@H](C(C)C)C(=O)N2` [TxID[P6A]] (HELM PEPTIDE1{G.C.C.S.H.A.V.C.S.A.M.S.P.I.C.[am]}$PEPTIDE1,PEPTIDE1,2:R3-8:R3|PEPTIDE1,PEPTIDE1,3:R3-15:R3$$$V2.0): the IC50 in assay [1] (α3β4 IC50 (half-blocking dose)) and in assay [2] (setting [3]) was greater than 10000 nM in each case.
On to `CC[C@H](C)[C@@H]1NC(=O)[C@@H]2CCCN2C(=O)[C@H](CO)NC(=O)[C@H](CCSC)NC(=O)[C@H](C)NC(=O)[C@H](CO)NC(=O)[C@@H]2CSSC[C@H](NC(=O)CN)C(=O)N[C@@H](CSSC[C@@H](C(N)=O)NC1=O)C(=O)N[C@@H](CO)C(=O)N[C@@H](Cc1c[nH]cn1)C(=O)N1CCC[C@H]1C(=O)N[C@@H](C)C(=O)N2` [TxID[V7A]] (HELM PEPTIDE1{G.C.C.S.H.P.A.C.S.A.M.S.P.I.C.[am]}$PEPTIDE1,PEPTIDE1,2:R3-8:R3|PEPTIDE1,PEPTIDE1,3:R3-15:R3$$$V2.0), for which the IC50 in assay [1] (α3β4 IC50 (half-blocking dose)) and in assay [2] (setting [3]) was greater than 10000 nM throughout.
Consider `CC[C@H](C)[C@@H]1NC(=O)[C@@H]2CCCN2C(=O)[C@H](CO)NC(=O)[C@H](CCSC)NC(=O)[C@H](C)NC(=O)[C@H](Cc2ccccc2)NC(=O)[C@@H]2CSSC[C@H](NC(=O)CN)C(=O)N[C@@H](CSSC[C@@H](C(N)=O)NC1=O)C(=O)N[C@@H](CO)C(=O)N[C@@H](Cc1cnc[nH]1)C(=O)N1CCC[C@H]1C(=O)N[C@@H](C(C)C)C(=O)N2` [TxID[S9F]] (HELM PEPTIDE1{G.C.C.S.H.P.V.C.F.A.M.S.P.I.C.[am]}$PEPTIDE1,PEPTIDE1,2:R3-8:R3|PEPTIDE1,PEPTIDE1,3:R3-15:R3$$$V2.0), for which the IC50 in assay [1] (α3β4 IC50) was determined as 10.7 nM; in assay [1] (α3β4 IC50 (half-blocking dose)), 13.9 nM; in assay [2] (α6/α3β4 IC50) it was 10.2 nM; in assay [2] (setting [3]) it was 7.11 nM.
Take `CC[C@H](C)[C@@H]1NC(=O)[C@@H]2CCCN2C(=O)[C@H](CO)NC(=O)[C@H](CCSC)NC(=O)[C@H](C)NC(=O)[C@H](CCCCN)NC(=O)[C@@H]2CSSC[C@H](NC(=O)CN)C(=O)N[C@@H](CSSC[C@@H](C(N)=O)NC1=O)C(=O)N[C@@H](CO)C(=O)N[C@@H](Cc1c[nH]cn1)C(=O)N1CCC[C@H]1C(=O)N[C@@H](C(C)C)C(=O)N2` [TxID[S9K]] (HELM PEPTIDE1{G.C.C.S.H.P.V.C.K.A.M.S.P.I.C.[am]}$PEPTIDE1,PEPTIDE1,2:R3-8:R3|PEPTIDE1,PEPTIDE1,3:R3-15:R3$$$V2.0): the “blocking of rat α3β4 nAChRs current” value in assay [1] is “completely blocked”. Also, in assay [2], the “blocking effect on the current of rat α6/α3β4 nAChRs” value is on record as “no blocking effect”, the “blocking of α6/α3β4 nAChR current as part of the control current” value is recorded as “less than ¼” and the current blockade entry was “less than 50%”.
